Test results reported in PubChem BioAssay AID1963435 (Molecular Pharmacology Branch, DTP, NCI, 2024).

System: PANC-1 complex spheroid growth, percent test/control
Assay: Anticancer human tumor PANC-1 cell line growth inhibition [Asc];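 also: spheroids exposed to agents for 7 days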;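 as to viability, T/C: percent viability relative to DMSO vehicle wells taken as 100%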
Conditions: for IC50: curve of first compound; for viability, T/C: stronger effect = lower value
How it was run: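 Concentration series start at each agent's clinical Cmax, or at 10 microM when none is established, and drop in half-log steps; agents are applied alone or together to complex spheroids built with HUVEC and hMSC.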

With `C=CC(=O)N1CCN(c2nc(=O)n(-c3c(C)ccnc3C(C)C)c3nc(-c4c(O)cccc4F)c(F)cc23)C(C)C1` (configuration not stated) + Cc1c(S(C)(=O)=O)c(-c2cc(F)cc(N3CCN(c4ccc(NS(=O)(=O)c5ccc(NC(CCN6CCC(C(=O)OCCCP(=O)(O)O)CC6)CSc6ccccc6)c(S(=O)(=O)C(F)(F)F)c5)cc4)CC3)c2)c(-c2ccc(Cl)cc2)n1C(C)C as the compound, how does the IC50 (second compound 0.0316 µM) read?
The IC50 was over 10 µM.

What about the IC50 (second compound 0.1 µM) of the same compound?
The IC50 was over 10 µM.

What about the IC50 (second compound 0.316 µM) of the same compound?
The IC50 was over 10 µM.

What about the IC50 (second compound 1 µM) of the same compound?
Its IC50 is over 10 µM.

And the IC50 (second compound 3.16 µM)?
The IC50 was over 10 µM.

What about the IC50 (second compound 10 µM) of the same compound?
The IC50 was over 10 µM.

And the viability, T/C (second compound 0.0316 µM, first compound 0.0316 µM)?
The viability, T/C was 98.5%.

And the viability, T/C (second compound 0.0316 µM, first compound 0.1 µM)?
Its viability, T/C is 95.1%.

What about the viability, T/C (second compound 0.0316 µM, first compound 0.316 µM) of the same compound?
The viability, T/C was 93.7%.

What about the viability, T/C (second compound 0.0316 µM, first compound 1 µM) of the same compound?
The viability, T/C was 89.7%.

And the viability, T/C (second compound 0.0316 µM, first compound 3.16 µM)?
Its viability, T/C is 98.5%.

And the viability, T/C (second compound 0.0316 µM, first compound 10 µM)?
Its viability, T/C is 88.2%.

What about the viability, T/C (second compound 0.1 µM, first compound 0.0316 µM) of the same compound?
Its viability, T/C is 99.3%.

And the viability, T/C (second compound 0.1 µM, first compound 0.1 µM)?
The viability, T/C was 90.3%.

What about the viability, T/C (second compound 0.1 µM, first compound 0.316 µM) of the same compound?
Its viability, T/C is 105%.

What about the viability, T/C (second compound 0.1 µM, first compound 1 µM) of the same compound?
Its viability, T/C is 106%.

What about the viability, T/C (second compound 0.1 µM, first compound 3.16 µM) of the same compound?
Its viability, T/C is 88.8%.

What about the viability, T/C (second compound 0.1 µM, first compound 10 µM) of the same compound?
The viability, T/C was 94.5%.

And the viability, T/C (second compound 0.316 µM, first compound 0.0316 µM)?
Its viability, T/C is 107%.

And the viability, T/C (second compound 0.316 µM, first compound 0.1 µM)?
The viability, T/C was 97%.

And the viability, T/C (second compound 0.316 µM, first compound 0.316 µM)?
The viability, T/C was 105%.

And the viability, T/C (second compound 0.316 µM, first compound 1 µM)?
Its viability, T/C is 105%.

And the viability, T/C (second compound 0.316 µM, first compound 3.16 µM)?
Its viability, T/C is 98.4%.

And the viability, T/C (second compound 0.316 µM, first compound 10 µM)?
The viability, T/C was 98%.

And the viability, T/C (second compound 1 µM, first compound 0.0316 µM)?
The viability, T/C was 96.2%.

What about the viability, T/C (second compound 1 µM, first compound 0.1 µM) of the same compound?
The viability, T/C was 104%.

What about the viability, T/C (second compound 1 µM, first compound 0.316 µM) of the same compound?
The viability, T/C was 107%.

What about the viability, T/C (second compound 1 µM, first compound 1 µM) of the same compound?
Its viability, T/C is 114%.

And the viability, T/C (second compound 1 µM, first compound 3.16 µM)?
The viability, T/C was 95.6%.

And the viability, T/C (second compound 1 µM, first compound 10 µM)?
The viability, T/C was 92.6%.

What about the viability, T/C (second compound 3.16 µM, first compound 0.0316 µM) of the same compound?
Its viability, T/C is 107%.

What about the viability, T/C (second compound 3.16 µM, first compound 0.1 µM) of the same compound?
The viability, T/C was 109%.

What about the viability, T/C (second compound 3.16 µM, first compound 0.316 µM) of the same compound?
The viability, T/C was 104%.

And the viability, T/C (second compound 3.16 µM, first compound 1 µM)?
The viability, T/C was 102%.

And the viability, T/C (second compound 3.16 µM, first compound 3.16 µM)?
Its viability, T/C is 109%.

And the viability, T/C (second compound 3.16 µM, first compound 10 µM)?
The viability, T/C was 92.4%.

What about the viability, T/C (second compound 10 µM, first compound 0.0316 µM) of the same compound?
The viability, T/C was 166%.

And the viability, T/C (second compound 10 µM, first compound 0.1 µM)?
Its viability, T/C is 166%.

What about the viability, T/C (second compound 10 µM, first compound 0.316 µM) of the same compound?
The viability, T/C was 162%.

What about the viability, T/C (second compound 10 µM, first compound 1 µM) of the same compound?
Its viability, T/C is 177%.

And the viability, T/C (second compound 10 µM, first compound 3.16 µM)?
The viability, T/C was 175%.

What about the viability, T/C (second compound 10 µM, first compound 10 µM) of the same compound?
The viability, T/C was 135%.
